According to patent US11014904B2, “1,2,4-triazine-3-amine derivative, preparation method therefor, and use thereof in medicine” (Jiangsu Hengrui Medicine Co., Ltd., priority 2017, dated 2021):

Assays:
Format in all cases: cell-based
[1] = target: T1, adenosine A1 receptor (A1R) (Homo sapiens, UniProt P30542); assay: Inhibition of the adenosine A1 receptor cAMP signaling pathway in CHO-K1/A1R cells (HTRF); conditions: for IC50: CHO-K1/A1R cells, cAMP, forskolin 10 μM, CPA 10 nM; for IC50 ratio (A1R/A2aR): selectivity A1R over A2aR
T1 construct: expressed in transfected cells; host or cells: CHO-K1
T1 sequence (P30542 1-326): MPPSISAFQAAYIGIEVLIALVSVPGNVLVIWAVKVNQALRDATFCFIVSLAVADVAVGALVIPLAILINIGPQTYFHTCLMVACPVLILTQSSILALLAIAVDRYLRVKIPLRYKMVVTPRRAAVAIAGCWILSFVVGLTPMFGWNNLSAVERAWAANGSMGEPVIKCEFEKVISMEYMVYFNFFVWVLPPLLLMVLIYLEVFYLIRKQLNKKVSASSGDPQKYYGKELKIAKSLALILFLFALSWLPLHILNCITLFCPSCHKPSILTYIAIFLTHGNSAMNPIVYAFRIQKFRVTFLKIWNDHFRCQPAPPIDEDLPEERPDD
Text: (§1) Determination of the inhibition activity of the compounds of the present invention on the adenosine A2a receptor (A2aR) cAMP signaling pathway, the adenosine A2b receptor (A2bR) cAMP signaling pathway, the adenosine A1 receptor (A1R) cAMP signaling pathway and the adenosine A3 receptor (A3R) cAMP signaling pathway.
(§2) The inhibition activity of the compounds of the present invention on the adenosine A2a receptor (A2aR) cAMP signaling pathway, the adenosine A2b receptor cAMP signaling pathway, the adenosine A1 receptor cAMP signaling pathway and the adenosine A3 receptor cAMP signaling pathway was determined by the following method. The experimental method is briefly described as follows:
2.3 Adenosine A1 Receptor
CHO-K1/A1R cells were cultured in DMEM/F12 medium containing 10% fetal bovine serum and 1 mg/ml G418. The cells were digested with the cell separation buffer during the experiment. The cells were then resuspended in the balanced salt buffer containing 20 mM HEPES and 0.1% bovine serum albumin and counted, and the cell density was adjusted to 5×10^5 cells/ml. In the 384-well plate, each well was added with 12.5 μl of cell suspension, and 6.25 μl of test compound (4× concentration) formulated with the balanced salt buffer containing 20 mM HEPES, 0.1% bovine serum albumin, 54 μM rolipram and 2.7 U/ml adenosine deaminase, and the plate was incubated at room temperature for 30 minutes. Each well was then added with 6.25 μl of forskolin and N6-cyclopentyladenosine (4× concentration) formulated with the balanced salt buffer containing 20 mM HEPES, 0.1% bovine serum albumin, 54 μM rolipram and 2.7 U/ml adenosine deaminase, and the plate was incubated at room temperature for 30 minutes. The final concentrations of the compounds were: 100000, 10000, 1000, 100, 10, 1, 0.1 and 0 nM. The final concentrations of forskolin was 10 μM. The final concentrations of CPA was 10 nM. Intracellular cAMP concentration was detected with the cAMP dynamic 2 kit. cAMP-d2 and Anti-cAMP-Eu-Cryptate were diluted respectively with the cAMP lysis buffer at a ratio of 1:4. Each well was added with 12.5 μl of diluted cAMP-d2, followed by addition of 12.5 μl of diluted Anti-cAMP-Eu-Cryptate, and the plate was incubated at room temperature in the dark for 1 hour. The HTRF signal values were read by the PHERAstar multi-function microplate reader.

[2] = target: T2, adenosine A2a receptor (A2aR) (Homo sapiens, UniProt P29274); assay: Inhibition of the adenosine A2a receptor cAMP signaling pathway in CHO-K1/A2aR cells (HTRF); conditions: CHO-K1/A2aR cells, cAMP, NECA 20 nM; Table 1
T2 construct: expressed in transfected cells; host or cells: CHO-K1
Text: as §1, §2
2.1 Adenosine A2a receptor
CHO-K1/A2aR cells were cultured in DMEM/F12 medium containing 10% fetal bovine serum and 800 μg/ml bleomycin. The cells were digested with the cell separation buffer during the experiment. The cells were resuspended in the balanced salt buffer containing 20 mM HEPES and 0.1% bovine serum albumin and counted, and the cell density was adjusted to 10^6 cells/ml. In the 384-well plate, each well was added with 5 μl of cell suspension, and 2.5 μl of test compound (4× concentration) formulated with the balanced salt buffer containing 20 mM HEPES, 0.1% bovine serum albumin, 54 μM rolipram and 2.7 U/ml adenosine deaminase, and the plate was incubated at room temperature for 30 minutes. Each well was then added with 2.5 μl of […] (4× concentration) formulated with the balanced salt buffer containing 20 mM HEPES, 0.1% bovine serum albumin, 54 μM rolipram and 2.7 U/ml adenosine deaminase, and the plate was incubated at room temperature for 30 minutes. The final concentrations of the compounds were: 10000, 2000, 400, 80, 16, 3.2, 0.64, 0.128, 0.0256, 0.00512, and 0.001024 nM. The final concentration of […] was 20 nM. Intracellular cAMP concentration was detected with the cAMP dynamic 2 kit. cAMP-d2 and Anti-cAMP-Eu-Cryptate were diluted respectively with the cAMP lysis buffer at a ratio of 1:4. Each well was added with 5 μl of diluted cAMP-d2, followed by addition of 5 μl of diluted Anti-cAMP-Eu-Cryptate, and the plate was incubated at room temperature in the dark for 1 hour. The HTRF signal values were read by the PHERAstar multi-function microplate reader.

[3] = target: T3, adenosine A3 receptor (A3R) (Homo sapiens, UniProt P0DMS8); assay: Inhibition of the adenosine A3 receptor cAMP signaling pathway in CHO-K1/A3R cells (HTRF); conditions: for IC50: CHO-K1/A3R cells, cAMP, forskolin 10 μM, 2Cl-IB-MECA 5 nM; for IC50 ratio (A3R/A2aR): selectivity A3R over A2aR
T3 construct: expressed in transfected cells; host or cells: CHO-K1
T3 sequence (P0DMS8 1-318): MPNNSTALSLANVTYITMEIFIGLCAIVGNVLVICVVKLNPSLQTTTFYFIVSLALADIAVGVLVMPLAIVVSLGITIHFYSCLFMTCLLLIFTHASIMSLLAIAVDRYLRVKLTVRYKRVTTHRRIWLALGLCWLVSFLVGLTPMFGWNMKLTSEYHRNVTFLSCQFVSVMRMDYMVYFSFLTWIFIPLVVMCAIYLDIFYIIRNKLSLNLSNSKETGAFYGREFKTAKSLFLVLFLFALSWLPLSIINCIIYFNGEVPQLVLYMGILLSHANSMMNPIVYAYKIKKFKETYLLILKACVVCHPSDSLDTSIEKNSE
Text: as §1, §2
2.4 Adenosine A3 Receptor
CHO-K1/A3R cells were cultured in DMEM/F12 medium containing 10% fetal bovine serum and 10 μg/ml puromycin. The cells were digested with the cell separation buffer during the experiment. The cells were resuspended in the balanced salt buffer containing 20 mM HEPES and 0.1% bovine serum albumin and counted, and the cell density was adjusted to 5×10^5 cells/ml. In the 384-well plate, each well was added with 12.5 μl of cell suspension, and 6.25 μl of test compound (4× concentration) formulated with the balanced salt buffer containing 20 mM HEPES, 0.1% bovine serum albumin, 54 μM rolipram and 2.7 U/ml adenosine deaminase, and the plate was incubated at room temperature for 30 minutes. Each well was then added with 6.25 μl of forskolin and 2Cl-IB-MECA (4× concentration) formulated with the balanced salt buffer containing 20 mM HEPES, 0.1% bovine serum albumin, 54 μM rolipram and 2.7 U/ml adenosine deaminase, and the plate was incubated at room temperature for 30 minutes. The final concentrations of the compounds were: 100000, 10000, 1000, 100, 10, 1, 0.1 and 0 nM. The final concentrations of forskolin was 10 μM. The final concentration of 2Cl-IB-MECA was 5 nM. Intracellular cAMP concentration was detected with the cAMP dynamic 2 kit. cAMP-d2 and Anti-cAMP-Eu-Cryptate were diluted respectively with the cAMP lysis buffer at a ratio of 1:4. Each well was added with 12.5 μl of diluted cAMP-d2, followed by addition of 12.5 μl of diluted Anti-cAMP-Eu-Cryptate, and the plate was incubated at room temperature in the dark for 1 hour. The HTRF signal values were read by the PHERAstar multi-function microplate reader.

T2 sequence (P29274 whole entry): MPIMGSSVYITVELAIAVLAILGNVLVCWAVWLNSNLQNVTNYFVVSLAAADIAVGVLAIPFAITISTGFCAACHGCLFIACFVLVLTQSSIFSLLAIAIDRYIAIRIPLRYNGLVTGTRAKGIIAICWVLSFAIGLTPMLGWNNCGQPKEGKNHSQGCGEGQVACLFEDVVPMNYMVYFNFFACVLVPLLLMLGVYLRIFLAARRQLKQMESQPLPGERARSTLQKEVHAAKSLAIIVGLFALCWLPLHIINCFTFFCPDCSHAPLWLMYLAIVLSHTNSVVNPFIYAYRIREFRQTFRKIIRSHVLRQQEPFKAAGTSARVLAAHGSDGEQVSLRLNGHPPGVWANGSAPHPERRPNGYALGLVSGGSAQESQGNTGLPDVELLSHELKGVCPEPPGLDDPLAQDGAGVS

IC50 [1] [nM]	IC50 ratio (A1R/A2aR) [1]	IC50 [2] [nM]	IC50 [3] [nM]	IC50 ratio (A3R/A2aR) [3]	SMILES
–	–	3.6	–	–	Cc1cc(-c2nnc(N)nc2-c2ccc(F)cc2)cc2cccnc12 [Example 8, 5-(4-Fluorophenyl)-6-(8-methylquinolin-6-yl)-1,2,4-triazin-3-amine]
–	–	2.2	–	–	Nc1nnc(-c2ccc3nccc(Cl)c3c2)c(-c2ccc(F)cc2)n1 [Example 27, 6-(4-Chloroquinolin-6-yl)-5-(4-fluorophenyl)-1,2,4-triazin-3-amine]
–	–	3	–	–	Cc1cnc2ccc(-c3nnc(N)nc3-c3ccccc3)cc2c1 [Example 28, 6-(3-Methylquinolin-6-yl)-5-phenyl-1,2,4-triazin-3-amine]
3280	1365	2.4	> 10000	>10^3	Cc1cc(-c2nc(N)nnc2-c2ccc3nccc(C)c3c2)ccn1 [Example 48, 5-(2-Methylpyridin-4-yl)-6-(4-methylquinolin-6-yl)-1,2,4-triazin-3-amine]
–	–	2.5	–	–	Nc1nnc(-c2ccc3nccc(C4CC4)c3c2)c(-c2ccc(F)cc2)n1 [Example 49, 6-(4-Cyclopropylquinolin-6-yl)-5-(4-fluorophenyl)-1,2,4-triazin-3-amine]
3260	1018	3.2	> 10000	>10^3	Cc1ncnc2c(F)cc(-c3nnc(N)nc3-c3ccc(F)cc3)cc12 [Example 50, 6-(8-Fluoro-4-methylquinazolin-6-yl)-5-(4-fluorophenyl)-1,2,4-triazin-3-amine]
–	–	3.5	–	–	Nc1nnc(-c2ccc3nccc(C(F)F)c3c2)c(-c2ccc(F)cc2)n1 [Example 51, 6-(4-(Difluoromethyl)quinolin-6-yl)-5-(4-fluorophenyl)-1,2,4-triazin-3-amine]

Further lines, the compound ahead of its results:

SMILES	IC50 [1] [nM]	IC50 ratio (A1R/A2aR) [1]	IC50 [2] [nM]	IC50 [3] [nM]	IC50 ratio (A3R/A2aR) [3]
Cc1cc(-c2nnc(N)nc2-c2ccccc2)cc2cccnc12 [Example 1, 6-(8-Methylquinolin-6-yl)-5-phenyl-1,2,4-triazin-3-amine]	121	242	0.5	> 10000	>10^4
Cc1cc(-c2nnc(N)nc2-c2ccco2)cc2cccnc12 [Example 6, 5-(Furan-2-yl)-6-(8-methylquinolin-6-yl)-1,2,4-triazin-3-amine]	–	–	1.3	–	–
Cc1cc(-c2nnc(N)nc2-c2cccs2)cc2cccnc12 [Example 7, 6-(8-Methylquinolin-6-yl)-5-(thiophen-2-yl)-1,2,4-triazin-3-amine]	–	–	3.1	–	–
Nc1nnc(-c2ccc3ccccc3c2)c(-c2ccccc2)n1 [Example 13, 6-(Naphthalen-2-yl)-5-phenyl-1,2,4-triazin-3-amine, reference compound]	–	–	158	–	–
Nc1nnc(-c2ccc3ncc(F)cc3c2)c(-c2ccccc2)n1 [Example 24, 6-(3-Fluoroquinolin-6-yl)-5-phenyl-1,2,4-triazin-3-amine]	–	–	0.9	–	–
Nc1nnc(-c2cc(F)c3ncccc3c2)c(-c2cccc(F)c2)n1 [Example 26, 5-(3-Fluorophenyl)-6-(8-fluoroquinolin-6-yl)-1,2,4-triazin-3-amine]	–	–	1.8	–	–
Nc1nnc(-c2ccc3ncncc3c2)c(-c2ccccc2)n1 [Example 29, 5-Phenyl-6-(quinazolin-6-yl)-1,2,4-triazin-3-amine]	–	–	3.5	–	–
Nc1nnc(-c2ccc3ncccc3c2)c(-c2ccc(F)cc2)n1 [Example 30, 5-(4-Fluorophenyl)-6-(quinolin-6-yl)-1,2,4-triazin-3-amine]	–	–	3.7	–	–
CCc1ccnc2c(F)cc(-c3nnc(N)nc3-c3ccccc3)cc12 [Example 47, 6-(4-Ethyl-8-fluoroquinolin-6-yl)-5-phenyl-1,2,4-triazin-3-amine]	–	–	1.6	–	–
